Data set [1] in a line: Solubility in 100 mM bistrispropane buffer at pH 7.0 incubated for 18 hrs by UPLC analysis. The class given is physicochemical.
Data set [2] concerns the target T1, Amylin receptor AMY3; CALCR/RAMP3 (Homo sapiens, UniProt O60896+P30988).
T1 sequence (P30988 whole entry): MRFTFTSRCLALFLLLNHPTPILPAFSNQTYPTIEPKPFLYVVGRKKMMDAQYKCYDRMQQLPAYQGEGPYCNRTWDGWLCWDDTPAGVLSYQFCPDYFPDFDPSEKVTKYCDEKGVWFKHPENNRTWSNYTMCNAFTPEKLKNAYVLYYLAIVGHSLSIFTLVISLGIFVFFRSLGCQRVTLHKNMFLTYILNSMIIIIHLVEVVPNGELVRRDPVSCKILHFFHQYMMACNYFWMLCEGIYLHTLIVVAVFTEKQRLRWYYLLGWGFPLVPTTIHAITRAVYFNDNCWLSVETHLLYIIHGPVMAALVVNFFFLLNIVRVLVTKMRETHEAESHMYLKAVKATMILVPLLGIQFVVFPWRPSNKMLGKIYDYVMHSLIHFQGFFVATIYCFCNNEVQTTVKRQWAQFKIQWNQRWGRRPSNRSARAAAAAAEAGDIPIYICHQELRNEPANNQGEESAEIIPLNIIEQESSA
T1 sequence (O60896 whole entry): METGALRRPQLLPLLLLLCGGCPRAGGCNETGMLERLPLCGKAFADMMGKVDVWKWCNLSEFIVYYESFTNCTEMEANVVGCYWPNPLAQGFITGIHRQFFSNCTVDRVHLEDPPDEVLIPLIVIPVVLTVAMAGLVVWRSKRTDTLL
In words: Displacement of [125I]-labeled rat amylin from human amylin receptor expressed in BHK tkts13 whole cells co-expressing RAMP3 incubated for 60 mins by scintillation proximity assay. It is filed as cell-based. For orientation: Displacement assays read how much labelled ligand stays bound in the presence of the test substance.

A short description of data set [3]: Solubility in 100 mM glycylglycine buffer at pH 4.0 incubated for 18 hrs by UPLC analysis. The class given is physicochemical.
Data set [4] can be described thus: Solubility in 100 mM bistrispropane buffer at pH 6.0 incubated for 18 hrs by UPLC analysis. It is filed as physicochemical.
In data set [5] the target is T1, Amylin receptor AMY3; CALCR/RAMP3. In words: Agonist activity at human amylin receptor expressed in BHK570 cells co-expressing RAMP3 assessed as increase in intracellular cAMP concentration incubated for 3 hrs in absence of albumin by CRE luciferase reporter gene assay. The class given is functional, cell-based. On the technique in general: A reporter such as luciferase makes a cellular process visible.

A short description of data set [6]: Solubility in 100 mM bistrispropane buffer at pH 6.5 incubated for 18 hrs by UPLC analysis. It is filed as physicochemical.
Data set [7] can be described thus: Solubility in 100 mM bistrispropane buffer at pH 8.0 incubated for 18 hrs by UPLC analysis. The class given is physicochemical.
A short description of data set [8]: Solubility in 100 mM glycylglycine buffer at pH 3.0 incubated for 18 hrs by UPLC analysis. It is filed as physicochemical.
A short description of data set [9]: Solubility in 100 mM glycylglycine buffer at pH 5.0 incubated for 18 hrs by UPLC analysis. It is filed as physicochemical.
Another data set has as its target T2, Calcitonin receptor (Homo sapiens, UniProt P30988).
T2 sequence (P30988 whole entry): T1 sequence (P30988 whole entry)
The data set is described as follows: Agonist activity at human calcitonin receptor expressed in BHK570 cells assessed as increase in intracellular cAMP concentration incubated for 3 hrs in absence of albumin by CRE luciferase reporter gene assay. The class given is functional, cell-based.

The nature of data set [10]: Solubility in 100 mM bistrispropane buffer at pH 7.5 incubated for 18 hrs by UPLC analysis. It is filed as physicochemical.

Numbered stars: 1 amine (or outer) side, 2 acyl side, 3 side chain; on linkers, the order of the positions; unused ones are H or OH. Peptide text beside a SMILES is read from it. * marks the point of attachment. C18 diacid = O=C(O)CCCCCCCCCCCCCCCCC(=O)*; γGlu = O=C(O)[C@H](CCC(=O)[*:2])N[*:1]; Palmitoyl = CCCCCCCCCCCCCCCC(=O)*

Our source for the solubility, IC50 and EC50 values is ChEMBL document CHEMBL4420076, “Amylin and calcitonin receptor agonist” (2017).

One may read the solubility as how much of the substance goes into solution per volume. As a reminder, the IC50 is the concentration that gives 50% inhibition. For orientation: EC50 means the concentration that produces a half-maximal response.

In the case of `CCCCCCCCCCCCCCCC(=O)N[C@@H](CCC(=O)O)C(=O)N[C@@H](C)C(=O)N[C@@H](CO)C(=O)N[C@@H](CCC(=O)O)C(=O)N[C@@H](CC(C)C)C(=O)N[C@@H](CO)C(=O)N[C@H](C(=O)N[C@@H](C)C(=O)N[C@@H](C)C(=O)N[C@@H](CC(C)C)C(=O)NCC(=O)N[C@@H](CCCNC(=N)N)C(=O)N[C@@H](CC(C)C)C(=O)N[C@@H](CO)C(=O)N[C@@H](C)C(=O)N[C@@H](CCC(=O)O)C(=O)N[C@@H](CC(C)C)C(=O)N[C@@H](Cc1cnc[nH]1)C(=O)N[C@@H](CCC(=O)O)C(=O)N[C@@H](CC(C)C)C(=O)N[C@@H](C)C(=O)N[C@H](C(=O)N[C@@H](CC(C)C)C(=O)N1CCC[C@H]1C(=O)N[C@@H](CCCNC(=N)N)C(=O)N[C@H](C(=O)N[C@@H](CCC(=O)O)C(=O)N[C@H](C(=O)NCC(=O)N1CCC[C@H]1C(=O)N[C@@H](CCC(=O)O)C(=O)N[C@@H](CO)C(=O)N1CCC[C@H]1C(N)=O)[C@@H](C)O)[C@@H](C)O)[C@@H](C)O)[C@@H](C)O` (Palmitoyl-EASELSTAALGRLSAELHELATLPRTETGPESP-NH2), the solubility at 18 h in [1], in data set [3], in [4], in data set [6], in [7] and in data set [8] was at least 200 µM in each case. For the same molecule, the solubility at 18 h in [9] and in data set [10] was at least 200 µM each time. Further, the concentration for half-maximal inhibition (IC50) in data set [2] was 0.435 nM. For the same molecule, the EC50 in [5] was 0.01 nM; at Calcitonin receptor it was 0.013 nM.
`CC(C)C[C@H](NC(=O)[C@H](CCC(=O)O)NC(=O)[C@H](Cc1cnc[nH]1)NC(=O)[C@H](CC(C)C)NC(=O)[C@H](CCC(=O)O)NC(=O)[C@H](C)NC(=O)[C@H](CO)NC(=O)[C@H](CC(C)C)NC(=O)[C@H](CCCNC(=N)N)NC(=O)CNC(=O)[C@H](CC(C)C)NC(=O)[C@@H](NC(=O)[C@H](C)NC(=O)[C@@H](NC(=O)[C@H](CO)NC(=O)[C@@H](NC(=O)[C@H](CCC(=O)O)NC(=O)[C@H](CO)NC(=O)[C@H](C)NC(=O)CC[C@H](NC(=O)CCCCCCCCCCCCCCCCC(=O)O)C(=O)O)C(C)C)[C@@H](C)O)C(C)C)C(=O)N[C@@H](C)C(=O)N[C@H](C(=O)N[C@@H](CC(C)C)C(=O)N1CCC[C@H]1C(=O)N[C@@H](CCCNC(=N)N)C(=O)N[C@H](C(=O)N[C@@H](CCC(=O)O)C(=O)N[C@H](C(=O)NCC(=O)N[C@@H](CO)C(=O)NCC(=O)N[C@@H](CO)C(=O)N1CCC[C@H]1C(N)=O)[C@@H](C)O)[C@@H](C)O)[C@@H](C)O` ({C18 diacid-γGlu}-ASEVSTAVLGRLSAELHELATLPRTETGSGSP-NH2): the solubility at 18 h in data set [1], in data set [3], in data set [6], in data set [7], in data set [8] and in data set [9] was at least 200 µM throughout. Also, in [10], the solubility at 18 h was at least 200 µM. Further, in data set [2], the IC50 is 0.812 nM. The EC50 in data set [5] was 0.032 nM; on Calcitonin receptor, 0.013 nM.
For the molecule `CC[C@H](C)[C@H](NC(=O)[C@H](C)NC(=O)[C@@H](NC(=O)[C@H](CO)NC(=O)[C@@H](NC(=O)[C@H](CCC(=O)O)NC(=O)[C@H](CO)NC(=O)[C@H](C)NC(=O)[C@H](CCC(=O)O)NC(=O)CCCCCCCCCCCCCCCCC(=O)O)[C@@H](C)CC)[C@@H](C)O)C(=O)N[C@H](C(=O)NCC(=O)N[C@@H](CCCNC(=N)N)C(=O)N[C@@H](CC(C)C)C(=O)N[C@@H](CO)C(=O)N[C@@H](C)C(=O)N[C@@H](CCC(=O)O)C(=O)N[C@@H](CC(C)C)C(=O)N[C@@H](Cc1cnc[nH]1)C(=O)N[C@@H](CCC(=O)O)C(=O)N[C@H](C(=O)N[C@@H](C)C(=O)N[C@H](C(=O)N[C@@H](CC(C)C)C(=O)N1CCC[C@H]1C(=O)N[C@@H](CCCNC(=N)N)C(=O)N[C@H](C(=O)N[C@@H](CCC(=O)O)C(=O)N[C@H](C(=O)NCC(=O)N1CCC[C@H]1C(=O)N[C@@H](CCC(=O)O)C(=O)N[C@@H](CO)C(=O)N1CCC[C@H]1C(N)=O)[C@@H](C)O)[C@@H](C)O)[C@@H](C)O)[C@@H](C)CC)[C@@H](C)CC` ({C18 diacid}-EASEISTAIIGRLSAELHEIATLPRTETGPESP-NH2), the solubility at 18 h in [1], in data set [4], in data set [6], in [7], in [8] and in [10] was at least 200 µM each time. The IC50 in data set [2] is 0.998 nM. The values for the concentration giving a half-maximal response (EC50) (in data set [5]; at Calcitonin receptor) were 0.01 nM and 0.006 nM, respectively.
Turning to `CC(C)C[C@H](NC(=O)[C@H](C)NC(=O)[C@H](C)NC(=O)[C@@H](NC(=O)[C@H](CO)NC(=O)[C@H](CC(C)C)NC(=O)[C@H](CCC(=O)O)NC(=O)[C@H](CO)NC(=O)[C@H](C)NC(=O)[C@H](CCC(=O)O)NC(=O)CCCCCCCCCCCCCCCCC(=O)O)[C@@H](C)O)C(=O)NCC(=O)N[C@@H](CCCNC(=N)N)C(=O)N[C@@H](CC(C)C)C(=O)N[C@@H](CO)C(=O)N[C@@H](C)C(=O)N[C@@H](CCC(=O)O)C(=O)N[C@@H](CC(C)C)C(=O)N[C@@H](Cc1cnc[nH]1)C(=O)N[C@@H](CCC(=O)O)C(=O)N[C@@H](CC(C)C)C(=O)N[C@@H](C)C(=O)N[C@H](C(=O)N[C@@H](CC(C)C)C(=O)N1CCC[C@H]1C(=O)N[C@@H](CCCNC(=N)N)C(=O)N[C@H](C(=O)N[C@@H](CCC(=O)O)C(=O)N[C@H](C(=O)NCC(=O)N1CCC[C@H]1C(=O)N[C@@H](CCC(=O)O)C(=O)N[C@@H](CO)C(=O)N1CCC[C@H]1C(=O)O)[C@@H](C)O)[C@@H](C)O)[C@@H](C)O` ({C18 diacid}-EASELSTAALGRLSAELHELATLPRTETGPESP-OH), the IC50 in data set [2] is 298 nM. Also, the EC50 in data set [5] was 0.481 nM; at Calcitonin receptor, 0.045 nM.
Regarding `CC[C@H](C)[C@H](NC(=O)[C@H](C)NC(=O)[C@@H](NC(=O)[C@H](CO)NC(=O)[C@H](CC(C)C)NC(=O)[C@H](CCC(=O)O)NC(=O)[C@H](CO)NC(=O)[C@H](C)NC(=O)[C@H](CCC(=O)O)NC(=O)CCCCCCCCCCCCCCCCC(=O)O)[C@@H](C)O)C(=O)N[C@@H](CC(C)C)C(=O)NCC(=O)N[C@@H](CCCNC(=N)N)C(=O)N[C@@H](CC(C)C)C(=O)N[C@@H](CO)C(=O)N[C@@H](C)C(=O)N[C@@H](CCC(=O)O)C(=O)N[C@@H](CC(C)C)C(=O)N[C@@H](Cc1cnc[nH]1)C(=O)N[C@@H](CCC(=O)O)C(=O)N[C@@H](CC(C)C)C(=O)N[C@@H](C)C(=O)N[C@H](C(=O)N[C@@H](CC(C)C)C(=O)N1CCC[C@H]1C(=O)N[C@@H](CCCNC(=N)N)C(=O)N[C@H](C(=O)N[C@@H](CCC(=O)O)C(=O)N[C@H](C(=O)NCC(=O)N1CCC[C@H]1C(=O)N[C@@H](CCC(=O)O)C(=O)N[C@@H](CO)C(=O)N1CCC[C@H]1C(N)=O)[C@@H](C)O)[C@@H](C)O)[C@@H](C)O` ({C18 diacid}-EASELSTAILGRLSAELHELATLPRTETGPESP-NH2), the solubility at 18 h in data set [1], in [4], in data set [6], in [7], in [8] and in [9] was at least 200 µM in each case. In addition, in data set [10], the solubility at 18 h is at least 200 µM. Further, the IC50 in data set [2] is 0.417 nM. In addition, the results for the EC50 (in data set [5]; at Calcitonin receptor) were 0.016 nM and 0.005 nM, respectively.
For the molecule `CC(C)C[C@H](NC(=O)[C@H](CCC(=O)O)NC(=O)[C@H](Cc1cnc[nH]1)NC(=O)[C@H](CC(C)C)NC(=O)[C@H](CCC(=O)O)NC(=O)[C@H](C)NC(=O)[C@H](CO)NC(=O)[C@H](CC(C)C)NC(=O)[C@H](CCCNC(=N)N)NC(=O)CNC(=O)[C@H](CC(C)C)NC(=O)[C@@H](NC(=O)[C@H](C)NC(=O)[C@@H](NC(=O)[C@H](CO)NC(=O)[C@@H](NC(=O)[C@H](CCC(=O)O)NC(=O)[C@H](CO)NC(=O)[C@H](C)NC(=O)[C@H](CCC(=O)O)NC(=O)CCCCCCCCCCCCCCCCC(=O)O)C(C)C)[C@@H](C)O)C(C)C)C(=O)N[C@@H](C)C(=O)N[C@H](C(=O)N[C@@H](CC(C)C)C(=O)N1CCC[C@H]1C(=O)N[C@@H](CCCNC(=N)N)C(=O)N[C@H](C(=O)N[C@@H](CCC(=O)O)C(=O)N[C@H](C(=O)NCC(=O)N1CCC[C@H]1C(=O)N[C@@H](CCC(=O)O)C(=O)N[C@@H](CO)C(=O)N1CCC[C@H]1C(N)=O)[C@@H](C)O)[C@@H](C)O)[C@@H](C)O` ({C18 diacid}-EASEVSTAVLGRLSAELHELATLPRTETGPESP-NH2), the solubility at 18 h in data set [1], in [4], in data set [6], in [7], in data set [8] and in data set [10] was at least 200 µM throughout. In addition, the half-inhibitory concentration (IC50) in data set [2] was 0.824 nM. Also, the EC50 in data set [5] is 0.02 nM; at Calcitonin receptor, 0.014 nM.
